PMC3934894, “Inhibition of Human and Yeast 20S Proteasome by Analogues of Trypsin Inhibitor SFTI-1” (PLoS ONE, 2014)
pIC50, pKd, pKi: −log10 of the molar value. “And” between values parts separate entries of the source, which are not always exact repeats. Equal entries are not always repeated. Where two headings read alike, the source gives them in different places. Peptide text beside a SMILES is read from it. * marks the point of attachment. Cbz = O=C(OCc1ccccc1)*

Legend:
[1] = test system: rat and porcine 20S proteasomes, T-L; parameters: method as in PMID 19054805; settings: cited from earlier work
[2] = target: T1, human 20S proteasome, chymotrypsin-like (ChT-L) activity (Homo sapiens, UniProt P28074)
Experimental: (§1) An assay buffer was composed of 50 mM Tris-HCl (pH 8.1) and 0.02% (w/v) SDS (exceptionally, T-L activity was measured in Tris buffer without SDS, that may trigger precipitation of substrates containing the guanidino group [21]). […] The SFTI-1 analogues were incubated with 20S proteasome in assay buffer at 37°C for 30 min. Reactions were performed in 96-well black BRAND plates (Germany). The final volume of the solution in each well was 200 µL. […] Proteasomal subsite activities were determined by monitoring the AMC liberation over time with a Fluorostar Omega (BMG Labtech, Germany) using excitation and emission wavelengths of 380 nm and 450 nm, respectively. […] Association constants Ka were measured as described previously [14] and calculated using a two-parameter fit model (using the GraFit software package).

[3] = target: human 20S proteasome, caspase-like (C-L) activity (Homo sapiens, UniProt P28072); assay: C-L activity of SDS-activated human 20S proteasome (Z-LLE-AMC); settings: for pIC50: C-like Human 20S IC50, SDS-activated human 20S, pH 8.1, 37°C, Z-LLE-AMC 79 µM
Experimental: as §1

[4] = test system: rat and porcine 20S proteasomes, C-L site; parameters: method as in PMID 19054805; settings: cited from earlier work
[5] = target: human 20S proteasome, trypsin-like (T-L) activity (Homo sapiens, UniProt Q99436); assay: T-L activity of latent human 20S proteasome (Z-LLR-AMC, no SDS); settings: for pIC50: T-like Human 20S IC50, latent human 20S, Tris buffer without SDS, pH 8.1, 37°C, Z-LLR-AMC 52 µM
Experimental: (§2) The peptidase activities of 20S proteasome were assayed using fluorogenic tri- and tetra-peptides coupled at their C-termini with 7-amino-4-methylcoumarin group (AMC). The initial concentration of purified yeast 20S proteasome [E0] […] An assay buffer was composed of 50 mM Tris-HCl (pH 8.1) and 0.02% (w/v) SDS (exceptionally, T-L activity was measured in Tris buffer without SDS, that may trigger precipitation of substrates containing the guanidino group [21]). […] The SFTI-1 analogues were incubated with 20S proteasome in assay buffer at 37°C for 30 min. Reactions were performed in 96-well black BRAND plates (Germany). The final volume of the solution in each well was 200 µL. […] Proteasomal subsite activities were determined by monitoring the AMC liberation over time with a Fluorostar Omega (BMG Labtech, Germany) using excitation and emission wavelengths of 380 nm and 450 nm, respectively.

[6] = target: yeast 20S proteasome, chymotrypsin-like (ChT-L) activity (Saccharomyces cerevisiae, UniProt P30656); assay: ChT-L activity of SDS-activated yeast 20S proteasome (Suc-LLVY-AMC)
Experimental: as §2

[7] = test system: rat and porcine 20S proteasomes, ChT-L; parameters: method as in PMID 19054805; settings: cited from earlier work
[8] = target: T1, human 20S proteasome, chymotrypsin-like (ChT-L) activity; assay: biochemical; settings: for pIC50: ChT-like Human 20S IC50, SDS-activated human 20S, [E] 2.7 nM, pH 8.1, 37°C, Suc-LLVY-AMC 52 µM
Experimental: as §1

20S proteasome = test system: 20S proteasome; parameters: method as in PMID 10805568; settings: ChT-L, T-L and C-L; cited from earlier work
porcine 20S C–L activity = test system: porcine 20S C–L activity; parameters: method as in PMID 19054805; settings: cited from earlier work
[9] = ChT-like Yeast 20S IC50, SDS-activated yeast 20S, [E] 0.9 nM, pH 8.1, 37°C, 30 min incubation, Suc-LLVY-AMC 5.2 µM

In the case of `CC(C)C[C@@H](C=O)NC(=O)[C@H](CC(C)C)NC(=O)[C@H](CC(C)C)NC(=O)OCc1ccccc1` [Z-LLL-CHO, reference compound] (Cbz-Leu-Leu-Leu-aldehyde), the pIC50 [1] is given as 5.64, the “inhibition of ChT-L activity at 4 µM” value [2] is given as “completely abolished” and the “ChT-like Human 20S Ka×10^5” value ([2]; pH 8.1) is given as 65.4. For the same molecule, the pIC50 [3] was 5.25, the pIC50 [4] was 5.77 and the pIC50 [5] was 4.32. For the same molecule, the pIC50 [6] was 6.59 and the pIC50 [7] was 6.11.
In the case of `CC[C@H](C)[C@@H]1NC(=O)[C@@H]2CCCN2C(=O)[C@H](CCCCN)NC(=O)[C@H](CCCCN)NC(=O)[C@H](CO)NC(=O)[C@H](CCCCN)NC(=O)[C@H]([C@@H](C)O)NC(=O)[C@@H](NC(=O)[C@H](CCCNC(=N)N)NC(=O)CN)CSSC[C@@H](C(=O)N[C@@H](Cc2ccccc2)C(=O)N2CCC[C@H]2C(=O)N[C@@H](CC(=O)O)C(=O)O)NC1=O` [Analogue X] (HELM PEPTIDE1{G.R.C.T.K.S.K.K.P.I.C.F.P.D}$PEPTIDE1,PEPTIDE1,3:R3-11:R3$$$V2.0), the pKi [8] was 6.18, the pIC50 [8] was ~5.89 and 5.89 and the pIC50 [3] was 5.95. The pIC50 [5] was 4.06 and the pIC50 [6, 9] was ~4.78 and 4.78.
`CC[C@H](C)[C@@H]1NC(=O)[C@@H]2CCCN2C(=O)[C@@H]2CCCN2C(=O)[C@H]([C@@H](C)CC)NC(=O)[C@H](CO)NC(=O)[C@H](CCCCN)NC(=O)[C@H]([C@@H](C)O)NC(=O)[C@@H](NC(=O)[C@H](CCCNC(=N)N)NC(=O)CN)CSSC[C@@H](C(=O)N[C@@H](Cc2ccccc2)C(=O)N2CCC[C@H]2C(=O)N[C@@H](CC(=O)O)C(=O)O)NC1=O` [Analogue I] showed a pKi [8] of 4.57, a pIC50 [8] of 4.29 and a pIC50 [3] of 4.24. The pIC50 [5] was less than 4.00 and the pIC50 [6, 9] was 4.28.
Molecule `CC[C@H](C)[C@@H]1NC(=O)[C@@H]2CCCN2C(=O)[C@H](CCCCN)NC(=O)[C@H](CCCCN)NC(=O)[C@H](CO)NC(=O)[C@H](Cc2ccccc2)NC(=O)[C@H]([C@@H](C)O)NC(=O)[C@@H](NC(=O)[C@H](CCCNC(=N)N)NC(=O)CN)CSSC[C@@H](C(=O)N[C@@H](Cc2ccccc2)C(=O)N2CCC[C@H]2C(=O)N[C@@H](CC(=O)O)C(=O)O)NC1=O` [Analogue VII] (HELM PEPTIDE1{G.R.C.T.F.S.K.K.P.I.C.F.P.D}$PEPTIDE1,PEPTIDE1,3:R3-11:R3$$$V2.0) has a pKi [8] of 5.76, a pIC50 [8] of 5.47 and a pIC50 [3] of 5.55. For the same molecule, the pIC50 [5] was 4.34 and the pIC50 [6] was 5.27.
For `C/C=C\NC(=O)[C@H]1NC(=O)[C@H](CC(N)=O)NC(=O)[C@@H](NC(=O)C(=O)[C@H](C)CC)Cc2ccc(O)c(c2)-c2cccc3c2NC(=O)[C@@]3(O)[C@@H]1O` [TMC-95B], the “reduction of 20S activities compared with TMC-95A” value (20S proteasome) is given as “to the same extent as TMC-95A”.
For `CC[C@H](C)[C@@H]1NC(=O)[C@@H]2CCCN2C(=O)[C@H](CCCCN)NC(=O)[C@H](CCCCN)NC(=O)[C@H](CO)NC(=O)[C@H](CCCNC(=N)N)NC(=O)[C@H]([C@@H](C)O)NC(=O)[C@@H](NC(=O)[C@H](CCCNC(=N)N)NC(=O)CN)CSSC[C@@H](C(=O)N[C@@H](Cc2ccccc2)C(=O)N2CCC[C@H]2C(=O)N[C@@H](CC(=O)O)C(=O)O)NC1=O` [Analogue V] (HELM PEPTIDE1{G.R.C.T.R.S.K.K.P.I.C.F.P.D}$PEPTIDE1,PEPTIDE1,3:R3-11:R3$$$V2.0), the pKd [8] was 6.00, the pKi [8] was 6.51 and the pIC50 [8] was 6.05 and 6.03. The “times lower Ka than Z-LLL-CHO” value ([2]; human 20S ChT-L) was “about 6.5 times”, the pIC50 [3] was 6.22 and 6.21 and the pIC50 [5] was 4.14. It also gave a pIC50 [6] of 5.91.
With `CC[C@H](C)[C@@H]1NC(=O)[C@@H]2CCCN2C(=O)[C@H](CCCCN)NC(=O)[C@H](CC(C)C)NC(=O)[C@H](CO)NC(=O)[C@H](CCCCN)NC(=O)[C@H]([C@@H](C)O)NC(=O)[C@@H](NC(=O)[C@H](CCCNC(=N)N)NC(=O)CN)CSSC[C@@H](C(=O)N[C@@H](Cc2ccccc2)C(=O)N2CCC[C@H]2C(=O)N[C@@H](CC(=O)O)C(=O)O)NC1=O` [Analogue II] (HELM PEPTIDE1{G.R.C.T.K.S.L.K.P.I.C.F.P.D}$PEPTIDE1,PEPTIDE1,3:R3-11:R3$$$V2.0) the pKi [8] was 5.91, the pIC50 [8] was 5.58 and the pIC50 [3] was 5.17. For the same molecule, the pIC50 [5] was less than 4.00 and the pIC50 [6, 9] was 5.67.
In the case of `CC[C@H](C)[C@@H]1NC(=O)[C@@H]2CCCN2C(=O)[C@H](CCCCN)NC(=O)[C@H](CCCCN)NC(=O)[C@H](CO)NC(=O)[C@H](C)NC(=O)[C@H]([C@@H](C)O)NC(=O)[C@@H](NC(=O)[C@H](CCCNC(=N)N)NC(=O)CN)CSSC[C@@H](C(=O)N[C@@H](Cc2ccccc2)C(=O)N2CCC[C@H]2C(=O)N[C@@H](CC(=O)O)C(=O)O)NC1=O` [Analogue VIII] (HELM PEPTIDE1{G.R.C.T.A.S.K.K.P.I.C.F.P.D}$PEPTIDE1,PEPTIDE1,3:R3-11:R3$$$V2.0), the pKi [8] was 5.52, the pIC50 [8] was 5.24 and the pIC50 [3] was 5.27. It also gave a pIC50 [5] of less than 4.00 and a pIC50 [6] of 5.05.
For `C/C=C\NC(=O)[C@H]1NC(=O)[C@H](CC(N)=O)NC(=O)[C@@H](NC(=O)C(=O)[C@@H](C)CC)Cc2ccc(O)c(c2)-c2cccc3c2NC(=O)[C@@]3(O)[C@H]1O` [TMC-95C], the “times weaker than TMC-95A” value (20S proteasome) is given as 20–150 times.
Work on `CC[C@H](C)[C@@H]1NC(=O)[C@@H]2CCCN2C(=O)[C@H](CCCCN)NC(=O)[C@H](CCCCN)NC(=O)[C@H](CO)NC(=O)[C@H](Cc2ccc(O)cc2)NC(=O)[C@H]([C@@H](C)O)NC(=O)[C@@H](NC(=O)[C@H](CCCNC(=N)N)NC(=O)CN)CSSC[C@@H](C(=O)N[C@@H](Cc2ccccc2)C(=O)N2CCC[C@H]2C(=O)N[C@@H](CC(=O)O)C(=O)O)NC1=O` [Analogue VI] (HELM PEPTIDE1{G.R.C.T.Y.S.K.K.P.I.C.F.P.D}$PEPTIDE1,PEPTIDE1,3:R3-11:R3$$$V2.0) yielded a pKi [8] of 5.84, a pIC50 [3] of 5.40 and a pIC50 [5] of 4.03. For the same molecule, the pIC50 [6] was 5.18.
Work on `CC[C@H](C)[C@@H]1NC(=O)[C@@H]2CCCN2C(=O)[C@H](C)NC(=O)[C@H](C)NC(=O)[C@H](CO)NC(=O)[C@H](CCCCN)NC(=O)[C@H]([C@@H](C)O)NC(=O)[C@@H](NC(=O)[C@H](CCCNC(=N)N)NC(=O)CN)CSSC[C@@H](C(=O)N[C@@H](Cc2ccccc2)C(=O)N2CCC[C@H]2C(=O)N[C@@H](CC(=O)O)C(=O)O)NC1=O` [Analogue IX] (HELM PEPTIDE1{G.R.C.T.K.S.A.A.P.I.C.F.P.D}$PEPTIDE1,PEPTIDE1,3:R3-11:R3$$$V2.0) yielded a pIC50 [8] of less than 4.00, a pIC50 [3] of less than 4.00 and a pIC50 [5] of 4.21. It also gave a pIC50 [6, 9] of less than 4.00 and a remaining activity at 100 µM ([6]; read-out: ChT-L activity remaining at about 100 µM) of no less than 70%.
In the case of “bovine pancreatic trypsin inhibitor [BPTI]”, the pIC50 [1] is listed as 6.10, the “inhibition of ChT-L activity at 4 µM” value ([2]; SDS-activated human 20S, 4 µM inhibitor) is listed as 60% and the “inhibition of the ChT-L site at ten-fold higher concentration” value ([2]; SDS-activated human 20S, ten-fold higher than 4 µM, data not shown) is listed as 80%. For the same molecule, the “effect on C-L activity at concentrations lower than 1 µM” value ([3]; SDS-activated human 20S) was “reduced the C-L activity significantly”, the “maximal inhibition of C-L activity” value ([3]; SDS-activated human 20S, even at 12 µM, data not shown) was no more than 80% and the pIC50 [4] was 6.28. For the same molecule, the “inhibition of porcine 20S C–L activity at 2 µM” value (porcine 20S C–L activity) was 86%, the “reduction of T-L activity at around 40 µM” value ([5]; latent human 20S, around 40 µM) was 60% and the pIC50 [7] was 6.38. The pKi ([7]; competitive, read-out: inhibition constant Ki, ChT-L) was 5.70.
Molecule `CC[C@H](C)[C@@H]1NC(=O)[C@@H]2CCCN2C(=O)[C@H]([C@@H](C)CC)NC(=O)[C@H](CCCNC(=N)N)NC(=O)[C@H](CO)NC(=O)[C@H](CCCCN)NC(=O)[C@H]([C@@H](C)O)NC(=O)[C@@H](NC(=O)[C@H](CCCNC(=N)N)NC(=O)CN)CSSC[C@@H](C(=O)N[C@@H](Cc2ccccc2)C(=O)N2CCC[C@H]2C(=O)N[C@@H](CC(=O)O)C(=O)O)NC1=O` [Analogue IV] (HELM PEPTIDE1{G.R.C.T.K.S.R.I.P.I.C.F.P.D}$PEPTIDE1,PEPTIDE1,3:R3-11:R3$$$V2.0) has a pKi [8] of 5.88, a pIC50 [8] of 5.60 and a pIC50 [3] of 5.61. It also gave a pIC50 [5] of 4.22 and a pIC50 [6, 9] of 5.27.
In the case of `C/C=C\NC(=O)[C@H]1NC(=O)[C@H](CC(N)=O)NC(=O)[C@@H](NC(=O)C(=O)[C@H](C)CC)Cc2ccc(O)c(c2)-c2cccc3c2NC(=O)[C@@]3(O)[C@H]1O` [TMC-95D], the “times weaker than TMC-95A” value (20S proteasome) is listed as 20–150 times.
Work on `CC[C@H](C)[C@@H]1NC(=O)[C@@H]2CCCN2C(=O)[C@H](CCCCN)NC(=O)[C@H](CC(C)C)NC(=O)[C@H](CO)NC(=O)[C@H](CCCNC(=N)N)NC(=O)[C@H]([C@@H](C)O)NC(=O)[C@@H](NC(=O)[C@H](CCCNC(=N)N)NC(=O)CN)CSSC[C@@H](C(=O)N[C@@H](Cc2ccccc2)C(=O)N2CCC[C@H]2C(=O)N[C@@H](CC(=O)O)C(=O)O)NC1=O` [Analogue III] (HELM PEPTIDE1{G.R.C.T.R.S.L.K.P.I.C.F.P.D}$PEPTIDE1,PEPTIDE1,3:R3-11:R3$$$V2.0) yielded a pKi [8] of 5.75, a pIC50 [8] of 5.47 and a pIC50 [3] of 5.62. For the same molecule, the pIC50 [5] was less than 4.00 and the pIC50 [6] was 5.97.
For `CC[C@H](C)[C@H](NC(=O)[C@H]([C@@H](C)CC)N(C)C(C)=O)C(=O)N[C@H](C(=O)N[C@@H](CC(C)C)C(=O)[C@@]1(C)CO1)[C@@H](C)O` [epoxomicin], the pIC50 [1] is given as 6.49, the pIC50 [4] is given as 5.44 and the pIC50 [7] is given as 6.85.
